What follows are compounds tested against T1, CYP4A (Homo sapiens, UniProt Q02928) (assay: CYP4A enzyme assay (luminescence, Luciferin-ME)). Settings: Compound concentration 5 μM; 50%-70%; read-out: % Inhibition 50%-70%.
T1 construct: purchased; host or cells: bacterial membranes ('bactosome')
T1 sequence (Q02928 5-519): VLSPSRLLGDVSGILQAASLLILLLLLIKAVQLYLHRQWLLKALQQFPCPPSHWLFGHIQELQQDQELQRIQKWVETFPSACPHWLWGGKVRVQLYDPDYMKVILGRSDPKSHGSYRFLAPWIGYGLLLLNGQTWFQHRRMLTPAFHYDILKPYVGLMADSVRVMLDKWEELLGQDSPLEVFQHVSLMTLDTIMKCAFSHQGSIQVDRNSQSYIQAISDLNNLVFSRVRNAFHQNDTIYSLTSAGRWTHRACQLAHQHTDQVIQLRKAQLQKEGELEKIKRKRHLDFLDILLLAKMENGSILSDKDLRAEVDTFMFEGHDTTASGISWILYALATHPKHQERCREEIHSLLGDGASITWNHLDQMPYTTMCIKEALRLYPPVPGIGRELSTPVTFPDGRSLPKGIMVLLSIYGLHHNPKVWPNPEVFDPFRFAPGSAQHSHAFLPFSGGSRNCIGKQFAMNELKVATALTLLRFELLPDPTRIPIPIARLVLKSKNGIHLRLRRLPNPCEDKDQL
Type: biochemical
Method: The CYP4A inhibitory activity of the above compounds of the examples was measured. The reagents used in the experiment were commercially available, and were prepared and used when necessary. The device used for measuring activity was SpectraMax of MOLECULAR DEVICES.
CYP4A bactosome and the compounds to be evaluated (5 μM) were each diluted in assay buffer (100 mM KPO4, 0.1% BSA, 1 mM DTT) and mixed in a 384 well plate (white opaque polystyrene nontreated flat-bottom well), and reaction was carried out at room temperature for 15 minutes. To induce CYP4A reaction, 5 mM Luciferin-ME, NADPH Regeneration system (10× sol. A, 20× sol. B in assay buffer, Cat. Number: V865B, Promega) were sequentially added and mixed, and the reaction was carried out at room temperature for 30 minutes. Then, Luciferin Detection reagent was added thereto and reacted at room temperature for 15 minutes to stop the CYP4A reaction and induce a luminescence reaction. Finally, after measuring the luminescence value using a microplate reader, the inhibition of CYP4A activity by the compounds was evaluated by comparing the luminescence value from each well.
In the case of `O=C(c1ccncc1)N1CCCC(C(=O)N2CCN(c3cc(C(F)(F)F)nc4ccccc34)CC2)C1` (stereo not shown) [Example 98, (1-isonicotinoylpiperidin-3-yl)(4-(2-(trifluoromethyl)quinolin-4-yl)piperazin-1-yl)methanone], the inhibition at 5 µM is reported as 50 to 70%. For `O=C(C1CCCN(S(=O)(=O)C2CC2)C1)N1CCN(c2ccnc3ccccc23)CC1` (stereo not shown) [Example 122, (1-(cyclopropylsulfonyl)piperidin-3-yl)(4-(quinolin-4-yl)piperazin-1-yl)methanone], the inhibition at 5 µM was 50 to 70%. Compound `CC(=O)Nc1ccc(C(=O)N2CCCC(C(=O)N3CCN(c4cc(C)nc5ccccc45)CC3)C2)cc1` (stereo not shown) [Example 100, N-(4-(3-(1-(2-methylquinolin-4-yl)piperazine-4-carbonyl)piperidine-1-carbonyl)phenyl)acetamide] has an inhibition at 5 µM of 50 to 70%. `COC(=O)CCS(=O)(=O)N1CCCC(C(=O)N2CCN(c3ccnc4cc(F)ccc34)CC2)C1` (stereo not shown) [Example 130, methyl 3-((3-(4-(7-fluoroquinolin-4-yl)piperazine-1-carbonyl)piperidin-1-yl)sulfonyl)propanoate] was tested, and the inhibition at 5 µM was 50 to 70%. `O=C(c1ccc(F)cc1)N1CCCC(C(=O)N2CCN(c3cc(C(F)(F)F)nc4ccccc34)CC2)C1` (stereo not shown) [Example 96, (1-(4-fluorobenzoyl)piperidin-3-yl)(4-(2-(trifluoromethyl)quinolin-4-yl)piperazin-1-yl)methanone] gave an inhibition at 5 µM of 50 to 70%. In the case of `O=C(c1ccccc1)N1CCCC(C(=O)N2CCN(c3ccnc4ccccc34)CC2)C1` (stereo not shown) [Example 113, (1-benzoylpiperidin-3-yl)(4-(quinolin-4-yl)piperazin-1-yl)methanone], the inhibition at 5 µM is reported as 50 to 70%.

Same assay, conditions: Compound concentration 5 μM; 70%-90%; read-out: % Inhibition 70%-90%
In the case of `Nc1cccc(S(=O)(=O)N2CC(C(=O)N3CCN(c4ccnc5cc(F)ccc45)CC3)C2)c1` [Example 72, (1-((3-aminophenyl)sulfonyl)azetidin-3-yl)(4-(7-fluoroquinolin-4-yl)piperazin-1-yl)methanone], the inhibition at 5 µM is reported as 70 to 90%. With `O=C(c1ccncc1)N1CCCC(C(=O)N2CCN(c3ccnc4ccccc34)CC2)C1` (stereo not shown) [Example 115, (1-isonicotinoylpiperidin-3-yl)(4-(quinolin-4-yl)piperazin-1-yl)methanone] the inhibition at 5 µM was 70 to 90%. `O=C(C1CCCN(S(=O)(=O)c2ccncc2)C1)N1CCN(c2ccnc3cc(Cl)ccc23)CC1` (stereo not shown) [Example 124, (4-(7-chloroquinolin-4-yl)piperazin-1-yl)(1-(pyridin-4-ylsulfonyl)piperidin-3-yl)methanone] was tested, and the inhibition at 5 µM was 70 to 90%. `O=C(c1ccc(F)cc1)N1CCCC(C(=O)N2CCN(c3ccnc4cc(Cl)ccc34)CC2)C1` (stereo not shown) [Example 84, (4-(7-chloroquinolin-4-yl)piperazin-1-yl)(1-(4-fluorophenylcarbonyl)piperidin-3-yl)methanone] gave an inhibition at 5 µM of 70 to 90%.

Same assay, conditions: Compound concentration 5 μM; Greater than 90%; read-out: % Inhibition Greater than 90%
For `CC(=O)Nc1nc(C)c(S(=O)(=O)N2CC[C@@H](C(=O)N3CCN(c4ccnc5ccccc45)CC3)C2)s1` [Example 48, (R)—N-(4-methyl-5-((3-(4-(quinolin-4-yl)piperazine-1-carbonyl)pyrrolidin-1-yl)sulfonyl)thiazol-2-yl)acetamide], the inhibition at 5 µM was over 90%. `CN1CCN(c2ccc(S(=O)(=O)N3CCCC(C(=O)N4CCN(c5ccnc6cc(F)ccc56)CC4)C3)cn2)CC1` (stereo not shown) [Example 62, (4-(7-fluoroquinolin-4-yl)piperazin-1-yl)(1-((6-(4-methylpiperazin-1-yl)pyridin-3-yl)sulfonyl)piperidin-3-yl)methanone] gave an inhibition at 5 µM of over 90%. With `CC(=O)Nc1ccc(S(=O)(=O)N2CC[C@@H](C(=O)N3CCN(c4ccnc5ccccc45)CC3)C2)cc1` [Example 22, (R)—N-(4-((3-(4-(quinolin-4-yl)piperazine-1-carbonyl)pyrrolidin-1-yl)sulfonyl)phenyl)acetamide] the inhibition at 5 µM was over 90%. In the case of `O=C(c1ncn[nH]1)N1CC[C@H](C(=O)N2CCN(c3ccnc4cc(F)ccc34)CC2)C1` [Example 161, (S)-(1-(4H-1,2,4-triazole-3-carbonyl)pyrrolidin-3-yl)(4-(7-fluoroquinolin-4-yl)piperazin-1-yl)methanone], the inhibition at 5 µM is reported as over 90%. In the case of `O=C(C1CCN(S(=O)(=O)c2ccc(-c3ccncc3)nc2)C1)N1CCN(c2ccnc3ccccc23)CC1` (stereo not shown) [Example 26, (1-([2,4′-bipyridin]-5-ylsulfonyl)pyrrolidin-3-yl)(4-(quinolin-4-yl)piperazin-1-yl)methanone], the inhibition at 5 µM is reported as over 90%. For `O=C([C@@H]1CCN(S(=O)(=O)c2ccc(-c3ccncc3)cc2)C1)N1CCN(c2ccnc3cc(F)ccc23)CC1` [Example 18, (R)-(4-(7-fluoroquinolin-4-yl)piperazin-1-yl)(1-((4-(pyridin-4-yl)phenyl)sulfonyl)pyrrolidin-3-yl)methanone], the inhibition at 5 µM was over 90%. Work on `Cc1nn(C)c(C)c1S(=O)(=O)N1CCC(C(=O)N2CCN(c3ccnc4ccccc34)CC2)C1` (stereo not shown) [Example 38, (4-(quinolin-4-yl)piperazin-1-yl)(1-((1,3,5-trimethyl-1H-pyrazol-4-yl)sulfonyl)pyrrolidin-3-yl)methanone] yielded an inhibition at 5 µM of over 90%. `O=C(C1CCN(S(=O)(=O)c2ncn[nH]2)C1)N1CCN(c2ccnc3ccccc23)CC1` (stereo not shown) [Example 43, (1-((1H-1,2,4-triazol-5-yl)sulfonyl)pyrrolidin-3-yl)(4-(quinolin-4-yl)piperazin-1-yl)methanone] showed an inhibition at 5 µM of over 90%. `CN(C)c1ccc(S(=O)(=O)N2CCC(C(=O)N3CCN(c4ccnc5cc(F)ccc45)CC3)C2)cc1` (stereo not shown) [Example 3, (1-((4-(dimethylamino)phenyl)sulfonyl)pyrrolidin-3-yl)(4-(7-fluoroquinolin-4-yl)piperazin-1-yl)methanone] showed an inhibition at 5 µM of over 90%. For `O=C([C@H]1CCN(S(=O)(=O)c2nccn2CCO)C1)N1CCN(c2ccnc3ccc(F)cc23)CC1` [Example 160, (S)-(4-(6-fluoroquinolin-4-yl)piperazin-1-yl)(1-((1-(2-hydroxyethyl)-1H-imidazol-2-yl)sulfonyl)pyrrolidin-3-yl)methanone], the inhibition at 5 µM was over 90%. `O=C([C@H]1CCN(S(=O)(=O)c2ncn(CCO)n2)C1)N1CCN(c2ccnc3cc(F)ccc23)CC1` [Example 140, (S)-(4-(7-fluoroquinolin-4-yl)piperazin-1-yl)(1-((1-(2-hydroxyethyl)-1H-1,2,4-triazol-3-yl)sulfonyl)pyrrolidin-3-yl)methanone] showed an inhibition at 5 µM of over 90%. `O=C(C1CCN(S(=O)(=O)c2ccc([N+](=O)[O-])cc2)CC1)N1CCN(c2ccnc3cc(F)ccc23)CC1` [Example 54, (4-(7-fluoroquinolin-4-yl)piperazin-1-yl)(1-((4-nitrophenyl)sulfonyl)piperidin-4-yl)methanone] showed an inhibition at 5 µM of over 90%. In the case of `O=C([C@H]1CCN(S(=O)(=O)c2cccnc2)C1)N1CCN(c2ccnc3cc(F)ccc23)CC1` [Example 156, (S)-(4-(7-fluoroquinolin-4-yl)piperazin-1-yl)(1-(pyridin-3-ylsulfonyl)pyrrolidin-3-yl)methanone], the inhibition at 5 µM is reported as over 90%. `O=C(C1CCN(S(=O)(=O)c2ccc([N+](=O)[O-])cc2)C1)N1CCN(c2ccnc3cc(F)ccc23)CC1` (stereo not shown) [Example 8, (4-(7-fluoroquinolin-4-yl)piperazin-1-yl)(1-((4-nitrophenyl)sulfonyl)pyrrolidin-3-yl)methanone] was tested, and the inhibition at 5 µM was over 90%.

Same assay, conditions: Compound concentration 5 μM; Less than 50%; read-out: % Inhibition Less than 50%
`O=C(C1CCCN(C(=O)C2CCCCC2)C1)N1CCN(c2ccnc3ccccc23)CC1` (stereo not shown) [Example 114, (1-(cyclohexylcarbonyl)piperidin-3-yl)(4-(quinolin-4-yl)piperazin-1-yl)methanone] was tested, and the inhibition at 5 µM was under 50%.

Source: US12612384B2, “Heterocyclic CYP4A inhibitor compounds and compositions thereof” (MBD CO., LTD., priority 2021, dated 2026)
